Experimental data from US11440899B2, “Pyrimidine TBK/IKKe inhibitor compounds and uses thereof” (Merck Patent GmbH, priority 2017, dated 2022).

What was measured:
IKKe = IKKe (Homo sapiens (Human), UniProt Q14164); test: IKKe Biochemical Assay
Procedure, shortened: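 Human IKKε activity was measured with compounds in a 10-point 1:4 dilution series, top concentration 30 uM final, in 1% DMSO final; 10 uM staurosporine served as the control. Enzyme and substrate were incubated 90 min at 25° C, then stopped, and substrate/product peaks were separated by microfluidic mobility-shift on a LabChip EZ Reader II.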

TBK1 = TBK1 (Homo sapiens (Human), UniProt Q9UHD2); test: TBK Biochemical Assay
Chain of TBK1 (Q9UHD2 whole entry, species assumed): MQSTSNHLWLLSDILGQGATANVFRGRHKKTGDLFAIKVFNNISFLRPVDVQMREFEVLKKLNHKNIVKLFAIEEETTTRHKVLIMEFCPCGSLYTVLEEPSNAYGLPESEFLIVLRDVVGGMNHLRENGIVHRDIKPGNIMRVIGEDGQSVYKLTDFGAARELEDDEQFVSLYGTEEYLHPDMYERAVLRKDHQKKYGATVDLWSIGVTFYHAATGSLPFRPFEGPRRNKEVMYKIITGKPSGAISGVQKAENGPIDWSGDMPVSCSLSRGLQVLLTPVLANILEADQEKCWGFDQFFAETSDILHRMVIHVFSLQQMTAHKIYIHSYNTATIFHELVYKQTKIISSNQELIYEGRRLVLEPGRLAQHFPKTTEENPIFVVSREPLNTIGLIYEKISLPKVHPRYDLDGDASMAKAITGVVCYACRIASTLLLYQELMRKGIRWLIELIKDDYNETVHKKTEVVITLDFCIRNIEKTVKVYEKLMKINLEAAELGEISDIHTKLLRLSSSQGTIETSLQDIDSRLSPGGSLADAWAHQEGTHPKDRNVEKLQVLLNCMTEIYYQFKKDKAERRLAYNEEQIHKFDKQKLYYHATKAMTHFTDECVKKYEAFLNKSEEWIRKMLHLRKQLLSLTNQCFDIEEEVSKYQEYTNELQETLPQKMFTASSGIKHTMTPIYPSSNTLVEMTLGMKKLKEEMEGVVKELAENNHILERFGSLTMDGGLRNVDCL
Procedure, shortened: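 Enzyme and substrate with compound (10-point 1:4 series, top 30 uM final, 1% DMSO) incubated 90 min at 25 °C, then stopped; substrate/product separated and read by LabChip mobility-shift, staurosporine 10 uM final as full-inhibition control.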

Chain of IKKe (Q14164 whole entry, species assumed): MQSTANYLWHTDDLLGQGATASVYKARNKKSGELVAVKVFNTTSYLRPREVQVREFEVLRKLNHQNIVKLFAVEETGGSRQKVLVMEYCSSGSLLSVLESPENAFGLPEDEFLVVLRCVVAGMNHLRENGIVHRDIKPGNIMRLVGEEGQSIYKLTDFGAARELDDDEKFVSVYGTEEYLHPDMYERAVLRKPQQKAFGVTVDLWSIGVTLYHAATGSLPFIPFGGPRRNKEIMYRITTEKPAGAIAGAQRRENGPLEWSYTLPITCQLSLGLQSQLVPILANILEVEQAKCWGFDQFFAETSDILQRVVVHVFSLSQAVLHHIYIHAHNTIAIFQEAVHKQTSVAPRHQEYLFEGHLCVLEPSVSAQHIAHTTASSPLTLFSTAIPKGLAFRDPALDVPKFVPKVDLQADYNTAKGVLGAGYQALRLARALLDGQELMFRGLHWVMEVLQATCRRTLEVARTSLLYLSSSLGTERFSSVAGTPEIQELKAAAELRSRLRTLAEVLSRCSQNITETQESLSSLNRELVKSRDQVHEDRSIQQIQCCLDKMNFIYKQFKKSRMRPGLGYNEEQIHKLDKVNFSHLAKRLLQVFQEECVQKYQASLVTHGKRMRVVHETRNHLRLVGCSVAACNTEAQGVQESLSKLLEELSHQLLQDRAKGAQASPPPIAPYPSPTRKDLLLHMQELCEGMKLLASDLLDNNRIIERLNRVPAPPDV

In the case of `COc1nc(Nc2cc(-c3ccc(OC4CCN(C(=O)[C@@H](C)O)CC4(F)F)c(C#N)c3)ncn2)ccc1N1CCN(C)[C@@H](C)C1` (stereo partly drawn) [Example 81, 2-([3,3-difluoro-1-[(2R)-2-hydroxypropanoyl]piperidin-4-yl]oxy)-5-[6-([5-[(3S)-3,4-dimethylpiperazin-1-yl]-6-methoxypyridin-2-yl]amino)pyrimidin-4-yl]benzonitrile], the IC50 (IKKe) is reported as < 100 nM and the IC50 (TBK1) is reported as < 100 nM.
For `COc1nc(Nc2cc(-c3ccc(OC4CCN(C(=O)[C@H](C)O)CC4(F)F)c(C#N)c3)ncn2)ccc1N1CCN(C)[C@@H](C)C1` (stereo partly drawn) [Example 82, 2-([3,3-difluoro-1-[(2S)-2-hydroxypropanoyl]piperidin-4-yl]oxy)-5-[6-([5-[(3S)-3,4-dimethylpiperazin-1-yl]-6-methoxypyridin-2-yl]amino)pyrimidin-4-yl]benzonitrile], the IC50 (IKKe) was < 100 nM and the IC50 (TBK1) was < 100 nM.
With `COc1nc(Nc2cc(-c3ccc(OC4CCNCC4(F)F)c(C#N)c3)ncn2)ccc1C1CCN(C2COC2)CC1` (centres unmarked) [Example 83] the IC50 (IKKe) was < 100 nM and the IC50 (TBK1) was < 100 nM.
In the case of `COc1nc(Nc2cc(-c3ccc(OC4CCN(C(=O)[C@H](C)O)CC4(F)F)c(C#N)c3)ncn2)ccc1C1CCN(C2COC2)CC1` (stereo partly drawn) [Example 84, 2-([3,3-difluoro-1-[(2S)-2-hydroxypropanoyl]piperidin-4-yl]oxy)-5-[6-([6-methoxy-5-[1-(oxetan-3-yl)piperidin-4-yl]pyridin-2-yl]amino)pyrimidin-4-yl]benzonitrile], the IC50 (IKKe) is reported as < 100 nM and the IC50 (TBK1) is reported as < 100 nM.
For `C[C@H](O)C(=O)N1CCC(Oc2ccc(-c3cc(Nc4ccc(N5CCN(C6COC6)CC5)cc4)ncn3)cc2C#N)C(F)(F)C1` (stereo partly drawn) [Example 85, 2-([3,3-difluoro-1-[(2S)-2-hydroxypropanoyl]piperidin-4-yl]oxy)-5-[6-([4-[4-(oxetan-3-yl)piperazin-1-yl]phenyl]amino)pyrimidin-4-yl]benzonitrile], the IC50 (IKKe) was < 100 nM and the IC50 (TBK1) was < 100 nM.
For `C[C@@H](O)C(=O)N1CCC(Oc2ccc(-c3cc(Nc4ccc(N5CCN(C6COC6)CC5)cc4)ncn3)cc2C#N)C(F)(F)C1` (stereo partly drawn) [Example 86, 2-([3,3-difluoro-1-[(2R)-2-hydroxypropanoyl]piperidin-4-yl]oxy)-5-[6-([4-[4-(oxetan-3-yl)piperazin-1-yl]phenyl]amino)pyrimidin-4-yl]benzonitrile], the IC50 (IKKe) was 100 to 1000 nM and the IC50 (TBK1) was < 100 nM.
`COc1nc(Nc2cc(-c3ccc(NC4CCOCC4)c(C#N)c3)ncn2)ccc1C(=O)N(C)C` [Example 87, 6-[(6-[3-cyano-4-[(oxan-4-yl)amino]phenyl]pyrimidin-4-yl)amino]-2-methoxy-N,N-dimethylpyridine-3-carboxamide] was tested, and the IC50 (IKKe) was 100 to 1000 nM and the IC50 (TBK1) was < 100 nM.
In the case of `COc1nc(Nc2cc(-c3ccc(OC4CCOCC4)c(C#N)c3)ncn2)ccc1C(=O)NCCO` [Example 88, 6-([6-[3-cyano-4-(oxan-4-yloxy)phenyl]pyrimidin-4-yl]amino)-N-(2-hydroxyethyl)-2-methoxypyridine-3-carboxamide], the IC50 (IKKe) is reported as < 100 nM and the IC50 (TBK1) is reported as < 100 nM.
`COc1nc(Nc2cc(-c3ccc(OC4CCOCC4)c(C#N)c3)ncn2)ccc1C(=O)NC1CN2CCC1CC2` (centres unmarked) [Example 89, 6-((6-(3-cyano-4-((tetrahydro-2H-pyran-4-yl)oxy)phenyl)pyrimidin-4-yl)amino)-2-methoxy-N-(quinuclidin-3-yl)nicotinamide] was tested, and the IC50 (IKKe) was < 100 nM and the IC50 (TBK1) was < 100 nM.
In the case of `COc1nc(Nc2cc(-c3ccc(OC4CCOCC4)c(C#N)c3)ncn2)ccc1C(=O)N1C2CCCC1COC2` [Example 90, 5-(6-[[6-methoxy-5-([3-oxa-9-azabicyclo[3.3.1]nonan-9-yl]carbonyl)pyridin-2-yl]amino]pyrimidin-4-yl)-2-(oxan-4-yloxy)benzonitrile], the IC50 (IKKe) is reported as < 100 nM and the IC50 (TBK1) is reported as < 100 nM.
